What was measured:
rice = experiment: Test B flood; format: in vivo, Oryza sativa; settings: 250 g ai/ha, visual rating on 0 to 100 scale (0 no effect, 100 complete control), 13 to 15 days
Procedure, shortened: (§1)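 Visual ratings on a 0–100 scale, where 0 means no effect and 100 means complete control, were assigned by comparison with controls 13 to 15 days after treatment. Compounds went into paddy water over 2-leaf plants flooded to 3 cm.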

pigweed [1] = experiment: Test A preemergence; format: in vivo, Amaranthus retroflexus; settings: preemergence; for Pigweed plant response rating (0 to 100 scale): 125 g ai/ha, visual injury approx. 10 days after treatment; for Pigweed plant response rating: 500 g ai/ha, visual injury after approx. 10 days, 0 to 100 scale (0 no effect, 100 complete control)
Procedure, shortened: (§2)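 Growth medium: loam soil blended with sand. Preemergence treatment used a directed soil spray right after planting; postemergence treatment targeted seedlings at one to two leaves (2–10 cm height). Response was judged by eye relative to untreated plants about 10 days later on a 0–100 control scale.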

wheat [2] = experiment: Test A postemergence; format: in vivo, Triticum aestivum
Procedure, shortened: as §2

morningglory [3] = experiment: Test A preemergence; format: in vivo, Ipomoea spp.; settings: preemergence; for Morningglory plant response rating (0 to 100 scale): 125 g ai/ha, visual injury approx. 10 days after treatment; for Morningglory plant response rating: 500 g ai/ha, visual injury after approx. 10 days, 0 to 100 scale (0 no effect, 100 complete control)
Procedure, shortened: as §2

pigweed [4] = experiment: Test A postemergence; format: in vivo, Amaranthus retroflexus
Procedure, shortened: as §2

velvetleaf [5] = experiment: Test A postemergence; format: in vivo, Abutilon theophrasti
Procedure, shortened: as §2

corn [6] = experiment: Test A postemergence; format: in vivo, Zea mays
Procedure, shortened: as §2

corn [7] = experiment: Test A preemergence; format: in vivo, Zea mays; settings: preemergence; for Corn plant response rating (0 to 100 scale): 125 g ai/ha, visual injury approx. 10 days after treatment; for Corn plant response rating: 500 g ai/ha, visual injury after approx. 10 days, 0 to 100 scale (0 no effect, 100 complete control)
Procedure, shortened: as §2

morningglory [8] = experiment: Test A postemergence; format: in vivo, Ipomoea spp.
Procedure, shortened: as §2

barnyardgrass [9] = experiment: Test A postemergence; format: in vivo, Echinochloa crus-galli
Procedure, shortened: as §2

sedge, umbrella = experiment: Test B flood; format: in vivo, Cyperus difformis; settings: 250 g ai/ha, visual rating on 0 to 100 scale (0 no effect, 100 complete control), 13 to 15 days
Procedure, shortened: as §1

wheat [10] = experiment: Test A preemergence; format: in vivo, Triticum aestivum; settings: preemergence; for Wheat plant response rating (0 to 100 scale): 125 g ai/ha, visual injury approx. 10 days after treatment; for Wheat plant response rating: 500 g ai/ha, visual injury after approx. 10 days, 0 to 100 scale (0 no effect, 100 complete control)
Procedure, shortened: as §2

velvetleaf [11] = experiment: Test A preemergence; format: in vivo, Abutilon theophrasti; settings: preemergence; for Velvetleaf plant response rating (0 to 100 scale): 125 g ai/ha, visual injury approx. 10 days after treatment; for Velvetleaf plant response rating: 500 g ai/ha, visual injury after approx. 10 days, 0 to 100 scale (0 no effect, 100 complete control)
Procedure, shortened: as §2

crabgrass, large [12] = experiment: Test A postemergence; format: in vivo, Digitaria sanguinalis
Procedure, shortened: as §2

ducksalad = experiment: Test B flood; format: in vivo, Heteranthera limosa; settings: 250 g ai/ha, visual rating on 0 to 100 scale (0 no effect, 100 complete control), 13 to 15 days
Procedure, shortened: as §1

barnyardgrass [13] = experiment: Test B flood; format: in vivo, Echinochloa crus-galli; settings: 250 g ai/ha, visual rating on 0 to 100 scale (0 no effect, 100 complete control), 13 to 15 days
Procedure, shortened: as §1

foxtail, giant [14] = experiment: Test A preemergence; format: in vivo, Setaria faberii; settings: preemergence; for Foxtail, Giant plant response rating (0 to 100 scale): 125 g ai/ha, visual injury approx. 10 days after treatment; for Foxtail, Giant plant response rating: 500 g ai/ha, visual injury after approx. 10 days, 0 to 100 scale (0 no effect, 100 complete control)
Procedure, shortened: as §2

barnyardgrass [15] = experiment: Test A preemergence; format: in vivo, Echinochloa crus-galli; settings: preemergence
Procedure, shortened: as §2

foxtail, giant [16] = experiment: Test A postemergence; format: in vivo, Setaria faberii
Procedure, shortened: as §2

crabgrass, large [17] = experiment: Test A preemergence; format: in vivo, Digitaria sanguinalis; settings: preemergence; for Crabgrass, Large plant response rating (0 to 100 scale): 125 g ai/ha, visual injury approx. 10 days after treatment; for Crabgrass, Large plant response rating: 500 g ai/ha, visual injury after approx. 10 days, 0 to 100 scale (0 no effect, 100 complete control)
Procedure, shortened: as §2

[18] = Postemergence, 500 g ai/ha, 0 to 100 scale (0 no effect, 100 complete control)
[19] = postemergence, 125 g ai/ha, about 10 days, visual rating on 0 to 100 scale (0 no effect, 100 complete control)
[20] = 125 g ai/ha, visual injury, 0 to 100 scale, approx. 10 days
[21] = 500 g ai/ha, visual injury after approx. 10 days, 0 to 100 scale (0 no effect, 100 complete control)

Row | SMILES | Plant response rating, Rice (rice) | Pigweed plant response rating (0 to 100 scale) (pigweed [1]) | Pigweed plant response rating (pigweed [1]) | Wheat plant response rating (wheat [2]; [18]) | Wheat plant response rating (wheat [2]; [19]) | Morningglory plant response rating (0 to 100 scale) (morningglory [3]) | Morningglory plant response rating (morningglory [3]) | Pigweed plant response rating (pigweed [4]; [18]) | Pigweed plant response rating (pigweed [4]; [19]) | Velvetleaf plant response rating (velvetleaf [5]; [18]) | Velvetleaf plant response rating (velvetleaf [5]; [19]) | Corn plant response rating (corn [6]; [18]) | Corn plant response rating (corn [6]; [19]) | Corn plant response rating (0 to 100 scale) (corn [7]) | Corn plant response rating (corn [7]) | Morningglory plant response rating (morningglory [8]; [18]) | Morningglory plant response rating (morningglory [8]; [19]) | Barnyardgrass plant response rating (barnyardgrass [9]; [18]) | Barnyardgrass plant response rating (barnyardgrass [9]; [19]) | Plant response rating, Sedge, Umbrella (sedge, umbrella) | other results
1 | O=C(NC1CC1)c1cc(Br)n(Cc2cccc(C(F)(F)F)c2)n1 [Compound 160] | 0 | 50 | 90 | 0 | 0 | 0 | 0 | 80 | 50 | 60 | 30 | 20 | 0 | 0 | 0 | 20 | 0 | 30 | 0 | 0 | Wheat plant response rating (0 to 100 scale) (wheat [10]): 0; Wheat plant response rating (wheat [10]): 0; Velvetleaf plant response rating (0 to 100 scale) (velvetleaf [11]): 0; Velvetleaf plant response rating (velvetleaf [11]): 10; Crabgrass, Large plant response rating (crabgrass, large [12]; [18]): 40; Crabgrass, Large plant response rating (crabgrass, large [12]; [19]): 20; Plant response rating, Ducksalad (ducksalad): 0; Plant response rating, Barnyardgrass (barnyardgrass [13]): 0; Foxtail, Giant plant response rating (0 to 100 scale) (foxtail, giant [14]): 0; Foxtail, Giant plant response rating (foxtail, giant [14]): 60; Barnyardgrass plant response rating (barnyardgrass [15]; [20]): 0; Barnyardgrass plant response rating (barnyardgrass [15]; [21]): 10; Foxtail, Giant plant response rating (foxtail, giant [16]; [18]): 30; Foxtail, Giant plant response rating (foxtail, giant [16]; [19]): 20; Crabgrass, Large plant response rating (0 to 100 scale) (crabgrass, large [17]): 50; Crabgrass, Large plant response rating (crabgrass, large [17]): 90
2 | CCc1cc(C(=O)NC2CC2)nn1Cc1nc(C(F)(F)F)no1 [Compound 163] | 0 | 30 | 100 | 0 | 0 | 0 | 70 | 90 | 50 | 80 | 50 | 30 | 0 | 0 | 0 | 90 | 30 | 40 | 10 | 0 | Wheat plant response rating (0 to 100 scale) (wheat [10]): 0; Wheat plant response rating (wheat [10]): 10; Velvetleaf plant response rating (0 to 100 scale) (velvetleaf [11]): 10; Velvetleaf plant response rating (velvetleaf [11]): 50; Crabgrass, Large plant response rating (crabgrass, large [12]; [18]): 70; Crabgrass, Large plant response rating (crabgrass, large [12]; [19]): 20; Plant response rating, Ducksalad (ducksalad): 0; Plant response rating, Barnyardgrass (barnyardgrass [13]): 0; Foxtail, Giant plant response rating (0 to 100 scale) (foxtail, giant [14]): 20; Foxtail, Giant plant response rating (foxtail, giant [14]): 70; Barnyardgrass plant response rating (barnyardgrass [15]; [20]): 10; Barnyardgrass plant response rating (barnyardgrass [15]; [21]): 60; Foxtail, Giant plant response rating (foxtail, giant [16]; [18]): 80; Foxtail, Giant plant response rating (foxtail, giant [16]; [19]): 10; Crabgrass, Large plant response rating (0 to 100 scale) (crabgrass, large [17]): 50; Crabgrass, Large plant response rating (crabgrass, large [17]): 100
3 | CCCNC(=O)c1cc(CC)n(Cc2nc(C(F)(F)F)no2)n1 [Compound 164] | 0 | 20 | 80 | 20 | 0 | 0 | 80 | 40 | 20 | 60 | 20 | 40 | 10 | 0 | 50 | 70 | 50 | 40 | 10 | 0 | Wheat plant response rating (0 to 100 scale) (wheat [10]): 0; Wheat plant response rating (wheat [10]): 20; Velvetleaf plant response rating (0 to 100 scale) (velvetleaf [11]): 0; Velvetleaf plant response rating (velvetleaf [11]): 10; Crabgrass, Large plant response rating (crabgrass, large [12]; [18]): 60; Crabgrass, Large plant response rating (crabgrass, large [12]; [19]): 10; Plant response rating, Ducksalad (ducksalad): 0; Plant response rating, Barnyardgrass (barnyardgrass [13]): 0; Foxtail, Giant plant response rating (0 to 100 scale) (foxtail, giant [14]): 10; Foxtail, Giant plant response rating (foxtail, giant [14]): 70; Barnyardgrass plant response rating (barnyardgrass [15]; [20]): 10; Barnyardgrass plant response rating (barnyardgrass [15]; [21]): 80; Foxtail, Giant plant response rating (foxtail, giant [16]; [18]): 40; Foxtail, Giant plant response rating (foxtail, giant [16]; [19]): 10; Crabgrass, Large plant response rating (0 to 100 scale) (crabgrass, large [17]): 80; Crabgrass, Large plant response rating (crabgrass, large [17]): 90
4 | CCc1cc(-c2ccc(C(F)(F)F)cc2)nn1C(=O)c1ccnc(C(F)(F)F)c1 [Compound 165] | 0 | 10 | 20 | 10 | 0 | 0 | 0 | 80 | 30 | 20 | 10 | 10 | 10 | 0 | 0 | 20 | 10 | 10 | 10 | 0 | Wheat plant response rating (0 to 100 scale) (wheat [10]): 0; Wheat plant response rating (wheat [10]): 0; Velvetleaf plant response rating (0 to 100 scale) (velvetleaf [11]): 0; Velvetleaf plant response rating (velvetleaf [11]): 0; Crabgrass, Large plant response rating (crabgrass, large [12]; [18]): 20; Crabgrass, Large plant response rating (crabgrass, large [12]; [19]): 10; Plant response rating, Ducksalad (ducksalad): 0; Plant response rating, Barnyardgrass (barnyardgrass [13]): 0; Foxtail, Giant plant response rating (0 to 100 scale) (foxtail, giant [14]): 0; Foxtail, Giant plant response rating (foxtail, giant [14]): 0; Barnyardgrass plant response rating (barnyardgrass [15]; [20]): 0; Barnyardgrass plant response rating (barnyardgrass [15]; [21]): 0; Foxtail, Giant plant response rating (foxtail, giant [16]; [18]): 10; Foxtail, Giant plant response rating (foxtail, giant [16]; [19]): 10; Crabgrass, Large plant response rating (0 to 100 scale) (crabgrass, large [17]): 0; Crabgrass, Large plant response rating (crabgrass, large [17]): 0

From patent US20150105252A1, “SUBSTITUTED PYRAZOLES AS HERBICIDES” (E I DU PONT DE NEMOURS AND COMPANY, priority 2013, published 2015)
